Measured values reported in PubChem BioAssay (NCI).
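A five-concentration, 48-hour dose response in 96-well plates underlies each endpoint, interpolated linearly between surrounding concentrations. GI50 = concentration required for 50% inhibition of growth. Definition used: TGI = concentration required for complete inhibition of growth.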

Legend:
Assay in all cases: NCI-60 cell line screen, 48 h
RXF 393 renal = system: RXF 393 renal
DU-145 prostate = system: DU-145 prostate
SF-268 CNS = system: SF-268 CNS
SK-MEL-28 melanoma = system: SK-MEL-28 melanoma
OVCAR-5 ovarian = system: OVCAR-5 ovarian
RPMI-8226 leukemia = system: RPMI-8226 leukemia
HOP-92 NSCLC = system: HOP-92 NSCLC
SF-539 CNS = system: SF-539 CNS
UACC-257 melanoma = system: UACC-257 melanoma
A549 NSCLC = system: A549 NSCLC
HL-60(TB) leukemia = system: HL-60(TB) leukemia
NCI-H23 lung = system: NCI-H23 lung
HOP-62 NSCLC = system: HOP-62 NSCLC
SK-OV-3 ovarian = system: SK-OV-3 ovarian
HCT-116 colon = system: HCT-116 colon
786-0 renal = system: 786-0 renal
PC-3 prostate = system: PC-3 prostate
U251 CNS = system: U251 CNS
EKVX NSCLC = system: EKVX NSCLC
UACC-62 melanoma = system: UACC-62 melanoma
SK-MEL-5 melanoma = system: SK-MEL-5 melanoma
MDA-MB-231 breast = system: MDA-MB-231 breast
SNB-19 CNS = system: SNB-19 CNS
ACHN renal = system: ACHN renal
CAKI-1 renal = system: CAKI-1 renal
T-47D breast = system: T-47D breast
KM12 colon = system: KM12 colon
COLO 205 colon = system: COLO 205 colon
SNB-75 CNS = system: SNB-75 CNS
MALME-3M melanoma = system: MALME-3M melanoma
NCI-H226 lung = system: NCI-H226 lung
HCT-15 colon = system: HCT-15 colon
MDA-MB-435 = system: MDA-MB-435
SF-295 CNS = system: SF-295 CNS
UO-31 renal = system: UO-31 renal
OVCAR-8 ovarian = system: OVCAR-8 ovarian
SR leukemia = system: SR leukemia
SN12C renal = system: SN12C renal
HS 578T breast = system: HS 578T breast
IGROV1 ovarian = system: IGROV1 ovarian
CCRF-CEM leukemia = system: CCRF-CEM leukemia
M14 melanoma = system: M14 melanoma
OVCAR-3 ovarian = system: OVCAR-3 ovarian
BT-549 breast = system: BT-549 breast
OVCAR-4 ovarian = system: OVCAR-4 ovarian
NCI/ADR-RES ovarian = system: NCI/ADR-RES ovarian
HT29 colon = system: HT29 colon
MOLT-4 leukemia = system: MOLT-4 leukemia
A498 renal = system: A498 renal
MCF7 breast = system: MCF7 breast
TK-10 renal = system: TK-10 renal
NCI-H460 lung = system: NCI-H460 lung
SK-MEL-2 melanoma = system: SK-MEL-2 melanoma
K-562 leukemia = system: K-562 leukemia
SW-620 colon = system: SW-620 colon
HCC-2998 colon = system: HCC-2998 colon

SMILES: CNC1CCc2c(sc(NC(=O)c3ccc(C(C)(C)C)cc3)c2C(N)=O)C1 (configuration not stated)
- GI50 (RXF 393 renal): 1420 nM
- TGI (RXF 393 renal): 2810 nM
- GI50 (DU-145 prostate): 1950 nM
- TGI (DU-145 prostate): 4030 nM
- GI50 (SF-268 CNS): 2440 nM
- TGI (SF-268 CNS): 5420 nM
- GI50 (SK-MEL-28 melanoma): 1730 nM
- TGI (SK-MEL-28 melanoma): 3250 nM
- GI50 (OVCAR-5 ovarian): 2000 nM
- TGI (OVCAR-5 ovarian): 4390 nM
- GI50 (RPMI-8226 leukemia): 1950 nM
- TGI (RPMI-8226 leukemia): 4890 nM
- GI50 (HOP-92 NSCLC): 944 nM
- TGI (HOP-92 NSCLC): 5040 nM
- GI50 (SF-539 CNS): 1660 nM
- TGI (SF-539 CNS): 3070 nM
- GI50 (UACC-257 melanoma): 1920 nM
- TGI (UACC-257 melanoma): 4430 nM
- GI50 (A549 NSCLC): 2090 nM
- TGI (A549 NSCLC): 4460 nM
- GI50 (HL-60(TB) leukemia): 634 nM
- TGI (HL-60(TB) leukemia): 2360 nM
- GI50 (NCI-H23 lung): 1670 nM
- TGI (NCI-H23 lung): 3620 nM
- GI50 (HOP-62 NSCLC): 1550 nM
- TGI (HOP-62 NSCLC): 3600 nM
- GI50 (SK-OV-3 ovarian): 2350 nM
- TGI (SK-OV-3 ovarian): 6140 nM
- GI50 (HCT-116 colon): 1340 nM
- TGI (HCT-116 colon): 2660 nM
- GI50 (786-0 renal): 1610 nM
- TGI (786-0 renal): 3100 nM
- GI50 (PC-3 prostate): 1730 nM
- TGI (PC-3 prostate): 4020 nM
- GI50 (U251 CNS): 1810 nM
- TGI (U251 CNS): 3790 nM
- GI50 (EKVX NSCLC): 1720 nM
- TGI (EKVX NSCLC): 4260 nM
- GI50 (UACC-62 melanoma): 1660 nM
- TGI (UACC-62 melanoma): 3060 nM
- GI50 (SK-MEL-5 melanoma): 1700 nM
- TGI (SK-MEL-5 melanoma): 3080 nM
- GI50 (MDA-MB-231 breast): 1610 nM
- TGI (MDA-MB-231 breast): 2970 nM
- GI50 (SNB-19 CNS): 1870 nM
- TGI (SNB-19 CNS): 3640 nM
- GI50 (ACHN renal): 2010 nM
- TGI (ACHN renal): 4230 nM
- GI50 (CAKI-1 renal): 1900 nM
- TGI (CAKI-1 renal): 3810 nM
- GI50 (T-47D breast): 2060 nM
- TGI (T-47D breast): 5590 nM
- GI50 (KM12 colon): 1890 nM
- TGI (KM12 colon): 3610 nM
- GI50 (COLO 205 colon): 1730 nM
- TGI (COLO 205 colon): 3540 nM
- GI50 (SNB-75 CNS): 2020 nM
- TGI (SNB-75 CNS): 5660 nM
- GI50 (MALME-3M melanoma): 1630 nM
- TGI (MALME-3M melanoma): 3260 nM
- GI50 (NCI-H226 lung): 1870 nM
- TGI (NCI-H226 lung): 4020 nM
- GI50 (HCT-15 colon): 1520 nM
- TGI (HCT-15 colon): 3150 nM
- GI50 (MDA-MB-435): 1750 nM
- TGI (MDA-MB-435): 3400 nM
- GI50 (SF-295 CNS): 1760 nM
- TGI (SF-295 CNS): 3270 nM
- GI50 (UO-31 renal): 1510 nM
- TGI (UO-31 renal): 3460 nM
- GI50 (OVCAR-8 ovarian): 2660 nM
- TGI (OVCAR-8 ovarian): 6930 nM
- GI50 (SR leukemia): 1290 nM
- TGI (SR leukemia): 3510 nM
- GI50 (SN12C renal): 2400 nM
- TGI (SN12C renal): 7340 nM
- GI50 (HS 578T breast): 2150 nM
- TGI (HS 578T breast): 5430 nM
- GI50 (IGROV1 ovarian): 1590 nM
- TGI (IGROV1 ovarian): 3580 nM
- GI50 (CCRF-CEM leukemia): 1520 nM
- TGI (CCRF-CEM leukemia): 4850 nM
- GI50 (M14 melanoma): 1750 nM
- TGI (M14 melanoma): 3600 nM
- GI50 (OVCAR-3 ovarian): 1920 nM
- TGI (OVCAR-3 ovarian): 3990 nM
- GI50 (BT-549 breast): 1850 nM
- TGI (BT-549 breast): 4670 nM
- GI50 (OVCAR-4 ovarian): 2050 nM
- TGI (OVCAR-4 ovarian): 5030 nM
- GI50 (NCI/ADR-RES ovarian): 2340 nM
- TGI (NCI/ADR-RES ovarian): 6340 nM
- GI50 (HT29 colon): 1290 nM
- TGI (HT29 colon): 3710 nM
- GI50 (MOLT-4 leukemia): 1740 nM
- TGI (MOLT-4 leukemia): 4090 nM
- GI50 (A498 renal): 1480 nM
- TGI (A498 renal): 4280 nM
- GI50 (MCF7 breast): 1650 nM
- TGI (MCF7 breast): 3530 nM
- GI50 (TK-10 renal): 2000 nM
- TGI (TK-10 renal): 3760 nM
- GI50 (NCI-H460 lung): 1630 nM
- TGI (NCI-H460 lung): 3330 nM
- GI50 (SK-MEL-2 melanoma): 2000 nM
- TGI (SK-MEL-2 melanoma): 4100 nM
- GI50 (K-562 leukemia): 1320 nM
- TGI (K-562 leukemia): 3340 nM
- GI50 (SW-620 colon): 1910 nM
- TGI (SW-620 colon): 3660 nM
- GI50 (HCC-2998 colon): 1760 nM
- TGI (HCC-2998 colon): 3340 nM
